Laboratory results taken from US20090088373A1, “USE OF COMPOSITIONS TO ENHANCE INNATE IMMUNE RESPONSE” (priority 2007, published 2009).

Experiments:
HBD3 = HBD3 expression in normal human keratinocytes (NHEK); format: cell-based; parameters: unit not given here; settings: Example 2
Method: (§1) To assess the effect of pimecrolimus on the innate immune response of the epidermis, cultures of normal human keratinocytes (NHEK) are stimulated with combinations of a concentration of 10 nM pimecrolimus, 1 μg/ml TLR 2/CD14 ligand—peptidoglycan (PGN), 10 μg/ml lipoteichoic acid (LTA), 2 0.1 μg/ml TLR 2/6 ligand—Malp-, and/or 0.1 μg/ml TLR 4/CD14 ligand—lipopolysaccharide (LPS). Expression of cathelicidin mRNA (Table 3) and protein as well as Human Beta Defensin (HBD) 2 (Table 4) and HBD3 (Table 5) expression in normal human keratinocytes is measured.

CD14 = CD14 gene expression by qPCR in NHEK; format: cell-based, human; settings: for CD14 mRNA expression (Mean): 10 nM pimecrolimus; for CD14 mRNA expression (Means of N = 3): Example 6, 10 nM Pimecrolimus, 1 nM 1,25D3
Method: (§2) To assess the effect of pimecrolimus on the innate immune response of the epidermis, cultures of normal human keratinocytes (NHEK) are stimulated with a combination of a concentration of 10 nM pimecrolimus and of 1 nM 1.25D3. Gene expression of TLR1, TLR2, TLR4, TLR6 and CD14 are evaluated by qPCR. For CD14 protein expression, a Western Blot is performed and bands are quantified by densitometry using lmagej. Vehicle treated keratinocytes serve as controls. Cathelicidin protein expression is evaluated by immunofluorescence staining.
(§3) To assess the effect of pimecrolimus on the innate immune response of the epidermis, cultures of normal human keratinocytes (NHEK) are stimulated with a concentration of 10 nM pimecrolimus,1 nM 1.25 D3, 0.1 μg/ml TLR2/6 ligand Malp-2 or their combination. Expression of cathelicidin, CD14 and TLR2 mRNA normal human keratinocytes is measured and evaluated accordingly to the procedures as detailed in Example 2 above.
(§4) To assess the effect of time dependent effects of pimecrolimus on the innate immune response of the epidermis, cultures of normal human keratinocytes (NHEK) are stimulated with 10 nM Pimecrolimus and low dose calciferol (1,25D3) 1 nM for different time points. mRNA expression of cathelicidin, CD14 and TLR2 is analyzed by qPCR.

TLR1 = TLR1 gene expression by qPCR in NHEK; format: cell-based, human; settings: Example 3; 10 nM pimecrolimus, 1 nM 1.25D3
Method: as §2

[1] = system: Human Beta Defensin (HBD) 2; assay: HBD2 expression in normal human keratinocytes (NHEK); format: cell-based; parameters: unit not given here; settings: Example 2
Method: as §1

[2] = system: Staphylococcus aureus ΔmprF; assay: Growth of S. aureus ΔmprF (OD600) mixed with lysates of stimulated normal human keratinocytes; format: cell-based; settings: for Bacterial growth OD600 (Mean): S. aureus + lysates of NHEK stimulated with 10 nM pimecrolimus, 1 nM 1.25D3 or combination, 37° C.
Method: To assess the effect of pimecrolimus on the innate immune response of the epidermis against bacteria, cultures of normal human keratinocytes (NHEK) are stimulated with a concentration of 10 nM pimecrolimus, 1 nM 1.25D3 (active 1.25 D-hydroxy calciferol) or their combination. Cells are lysed via sonication 20 minutes in an ice bath, after which cell lysates were mixed with Staphylococcus aureus ΔmprF cultures and incubated at 37° C. Bacterial growth over time is monitored by OD600 (Table 1). To determine if Pimecrolimus alone was able to kill Staphylococcus aureus ΔmprF, Pimecrolimus in a concentration of 10 nM is co-incubated with Staphylococcus aureus ΔmprF cultures and incubated at 37° C. (Table 2). Bacterial growth is monitored by OD600 (*: p<0.05; **: p<0.01; Student's t-test).

TLR6 = TLR6 gene expression by qPCR in NHEK; format: cell-based, human; settings: Example 3; 10 nM pimecrolimus, 1 nM 1.25D3
Method: as §2

cathelicidin = assay: Cathelicidin mRNA expression in normal human keratinocytes (NHEK); format: cell-based; parameters: Cathelicidin mRNA expression (Mean) / Cathelicidin mRNA expression (means): unit not given here; settings: for Cathelicidin mRNA expression (means): 1 uM tacrolimus, 1 ug/ml CsA, 25ng/ml rapamycin; for Cathelicidin mRNA expression (Means of N = 3): Example 6, 10 nM Pimecrolimus, 1 nM 1,25D3
Method: as §1, §3
To assess the effect of pimecrolimus on the innate immune response of the epidermis, cultures of normal human keratinocytes (NHEK) are stimulated with a concentration of 10 nM pimecrolimus, 1 uM tacrolimus, 1 ug/ml CsA, 25ng/ml rapamycin, or a combination of pimecrolimus and rapamycin, each of these with or without 0.1 μg/ml TLR2/6 ligand Malp-2. Cathelicidin mRNA expression is evaluated.
as §4
To assess the effect of varying levels of pimecrolimus on the innate immune response of the epidermis, cultures of normal human keratinocytes (NHEK) are stimulated with 0 nM, 5 nM, 10 nM, 20 nM, 30 nM, […], […] and 60 nM concentrations of pimecrolimus. Expression of cathelicidin mRNA expression is measured and evaluated accordingly to the procedures as detailed in Example 2 above.
To assess the effect of calciferol on varying levels of pimecrolimus on the innate immune response of the epidermis, cultures of normal human keratinocytes (NHEK) are stimulated with 0.01 nM, 0.1 nM, 1 nM and 10 nM concentrations of pimecrolimus with or without 1 nM concentrations of calciferol for 24 hours. Expression of cathelicidin mRNA and gene expression of TLR2 is measured and evaluated accordingly to the procedures as detailed in Example 2 above.

[3] = with 10 nM Pimecrolimus + 0.1 μg/ml LPS
[4] = with 10 nM Pimecrolimus + 0.1 μg/ml Malp-2
[5] = with 10 nM Pimecrolimus + 1 μg/ml PGN
[6] = with 10 nM Pimecrolimus + 10 μg/ml LTA
[7] = with 10 nM Pimecrolimus, no TLR ligand (control row)
[8] = in the presence of low dose 1,25D3 and Malp-2

CC[C@@H]1/C=C(\C)C[C@H](C)C[C@H](OC)[C@H]2O[C@@](O)(C(=O)C(=O)N3CCCC[C@H]3C(=O)O[C@H](/C(C)=C/[C@@H]3CC[C@H](Cl)[C@H](OC)C3)[C@H](C)[C@@H](O)CC1=O)[C@H](C)C[C@@H]2OC [Pimecrolimus, pimecrolimus]
HBD3 expression (Mean) (HBD3; [3]): 1.06
HBD3 expression (Mean) (HBD3; [4]): 28.59
HBD3 expression (Mean) (HBD3; [5]): 1.24
HBD3 expression (Mean) (HBD3; [6]): 0.72
HBD3 expression (Mean) (HBD3; [7]): 0.72
CD14 mRNA expression (Mean) (CD14; Example 3, 1 nM 1.25D3): 2.07
CD14 mRNA expression (Mean) (CD14; Example 4, 1 nM 1.25 D3, 0.1 μg/ml Malp-2 or combination): 2.07
CD14 mRNA expression (Means of N = 3) (CD14; 0 h): 1.54
CD14 mRNA expression (Means of N = 3) (CD14; 8 h): 1.46
CD14 mRNA expression (Means of N = 3) (CD14; 24 h): 2.10
CD14 mRNA expression (Means of N = 3) (CD14; 48 h): 1.04
Effect on 1,25D3-induced CD14 mRNA expression (in words) (CD14; after 8 hours of treatment): suppressed
Effect on 1,25D3-induced CD14 mRNA expression (in words) (CD14; after 24 hours): enhanced
CD14 expression (in words) (CD14; [8]): increasing
TLR1 mRNA expression (Mean) (TLR1): 3.16
HBD2 expression (Mean) [1, 3]: 1.34
HBD2 expression (Mean) [1, 4]: 867.92
HBD2 expression (Mean) [1, 5]: 0.51
HBD2 expression (Mean) [1, 6]: 1.77
HBD2 expression (Mean) [1, 7]: 6.53
Bacterial growth OD600 (Mean) ([2]; 0 h): 0.2253
Bacterial growth OD600 (Mean) ([2]; 2 h): 0.2557
Bacterial growth OD600 (Mean) ([2]; 4 h): 0.2807
Bacterial growth OD600 (Mean) ([2]; 5 h): 0.343
Bacterial growth OD600 (Mean) ([2]; 6 h): 0.4507
Bacterial growth OD600 (Mean) ([2]; 8 h): 0.6843
Antimicrobial effect of keratinocytes against S. aureus ΔmprF (in words) ([2]; summary of Table 1): increases the ability of keratinocytes to kill Staphylococcus aureus ΔmprF
TLR6 mRNA expression (Mean) (TLR6): 4.40
Cathelicidin mRNA expression (Mean) (cathelicidin; Example 2, with 10 nM Pimecrolimus + 0.1 μg/ml LPS): 8.67
Cathelicidin mRNA expression (Mean) (cathelicidin; Example 2, with 10 nM Pimecrolimus + 0.1 μg/ml Malp-2): 26.08
Cathelicidin mRNA expression (Mean) (cathelicidin; Example 2, with 10 nM Pimecrolimus + 1 μg/ml PGN): 9.81
Cathelicidin mRNA expression (Mean) (cathelicidin; Example 2, with 10 nM Pimecrolimus + 10 μg/ml LTA): 18.56
Cathelicidin mRNA expression (Mean) (cathelicidin; Example 2, with 10 nM Pimecrolimus, no TLR ligand (control row)): 2.64
Cathelicidin mRNA expression (Mean) (cathelicidin; Example 4, 10 nM pimecrolimus, 1 nM 1.25 D3, 0.1 μg/ml Malp-2 or combination): 22.57
Cathelicidin mRNA expression (means) (cathelicidin; Example 5, Experiment 1, with 0.1 μg/ml Malp-2, 10 nM pimecrolimus): 2.98
Cathelicidin mRNA expression (means) (cathelicidin; Example 5, Experiment 1, without Malp-2, 10 nM pimecrolimus): 1.33
Cathelicidin mRNA expression (means) (cathelicidin; Example 5, Experiment 2, with 0.1 μg/ml Malp-2, 10 nM pimecrolimus): 3.07
Cathelicidin mRNA expression (means) (cathelicidin; Example 5, Experiment 2, without Malp-2, 10 nM pimecrolimus): 2.40
Cathelicidin mRNA expression (Means of N = 3) (cathelicidin; 0 h): 1.20
Cathelicidin mRNA expression (Means of N = 3) (cathelicidin; 8 h): 1.82
Cathelicidin mRNA expression (Means of N = 3) (cathelicidin; 24 h): 1.75
Cathelicidin mRNA expression (Means of N = 3) (cathelicidin; 48 h): 2.06
Concentration at which cathelicidin mRNA expression peaks (bell-shaped dose response) (cathelicidin; Example 7): 20 nM
Cathelicidin mRNA expression (Mean) (cathelicidin; Example 7, 5 nM PIM): 1.46
Cathelicidin mRNA expression (Mean) (cathelicidin; Example 7, 10 nM Pim): 2.26
Cathelicidin mRNA expression (Mean) (cathelicidin; Example 7, 20 nM Pim): 82.72
Cathelicidin mRNA expression (Mean) (cathelicidin; Example 7, 40 nM Pim): 3.37
Cathelicidin mRNA expression (Mean) (cathelicidin; Example 7, 60 nM Pim): 1.78
Cathelicidin mRNA expression (Mean) (cathelicidin; Example 8, 0.01 nM PIM with 1 nM 1.25D3, 24 hours): 4.56
Cathelicidin mRNA expression (Mean) (cathelicidin; Example 8, 0.01 nM PIM, no 1.25D3, 24 hours): 1.04
Cathelicidin mRNA expression (Mean) (cathelicidin; Example 8, 0.1 nM PIM with 1 nM 1.25D3, 24 hours): 4.19
Cathelicidin mRNA expression (Mean) (cathelicidin; Example 8, 0.1 nM PIM, no 1.25D3, 24 hours): 0.47
Cathelicidin mRNA expression (Mean) (cathelicidin; Example 8, 1 nM PIM with 1 nM 1.25D3, 24 hours): 10.92
Cathelicidin mRNA expression (Mean) (cathelicidin; Example 8, 1 nM PIM, no 1.25D3, 24 hours): 1.61
Cathelicidin mRNA expression (Mean) (cathelicidin; Example 8, 10 nM PIM with 1 nM 1.25D3, 24 hours): 99.45
Cathelicidin mRNA expression (Mean) (cathelicidin; Example 8, 10 nM PIM, no 1.25D3, 24 hours): 9.81
Increase of cathelicidin mRNA expression, pimecrolimus in conjunction with calciferol versus pimecrolimus alone (cathelicidin; at the 1 nM and 10 nM concentrations of pimecrolimus, 1 nM calciferol): > 2 times
Transcript and protein abundance of antimicrobial genes (in words) (cathelicidin; in the presence of Toll 2/6 ligand Malp-2, summary of Tables 3-5 (cathelicidin, HBD2, HBD3)): increases transcript and protein abundance of antimicrobial genes
Cathelicidin transcript abundance (in words) (cathelicidin; [8]): enhances cathelicidin transcript abundance
